Measurements published in patent US7250157B2, “Dermatological compositions and methods” (Applied Genetics Incorporated Dermatics, priority 1996, dated 2007).
Where “and” joins values, the source holds several entries; their conditions need not be identical. Equal values may be shown once. Read-outs that look alike come from different tables or passages of the source.

Legend:
[1] = system: Cloudman S91 mouse melanoma cell line; assay: Melanin content of S91 cells after treatment with test compound; format: cell-based
How it was run: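 Mouse S91 melanoma cells seeded at 10^5 cells/35 mm dish in 10% calf serum and cultured with test compound 6 days at 37 °C, 5% CO2. Differentiation scored microscopically, trypsin detachment time recorded, cells counted; melanin measured by absorbance at 475 nm and expressed as pg melanin/cell.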

[2] = system: Normal human epidermal melanocytes (NHEMs); assay: Melanin induction in normal human epidermal melanocytes; format: cell-based
Experimental: Normal human epidermal melanocytes (NHEMs) were examined for induction of melanogenesis using cells and media from Clonetics Corporation (San Diego, Calif.). Cells were cultured exactly as specified by the supplier.

[3] = system: American short-haired guinea pigs; assay: Topical melanogenesis (pigmentation rating) in guinea pigs; format: in vivo, guinea pig; design: Pigmentation Rating / Pigmentation Rating Background Corrected: scale not given here; conditions: for relative melanogenesis rating (mean ±SE), scale 0-4: 25 μl twice per day for 5 days, rated two weeks after
How it was run: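 Agents applied topically to depilated back sites of American short-haired guinea pigs; PG, 2,3-BD and 1,2-cis-CPD at full strength, 3,3-M-1,2-BD at 4M in ethanol. Pigmentation subjectively rated two weeks after cessation of treatment, corrected for control-spot background, normalized to 1M and to 1,2-PG.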

[4] = system: Tyrosinase in normal human epidermal melanocytes (NHEM); assay: Tyrosinase in NHEM (in situ, cellular, extracellular particulate, media); format: cell-based; conditions: for Tyrosinase 200 g Partic, relative to controls (in parentheses) / Tyrosinase 17300 g Partic, relative to controls (in parentheses) / Tyrosinase Cellular, relative to controls (in parentheses) / Tyrosinase In Situ, relative to controls (in parentheses) / Tyrosinase Media, relative to controls (in parentheses): pair of replicates
Experimental: Tyrosinase was measured in normal human epidermal melanocytes (NHEM) using procedures identical to those described for S91 cells (Example 6), […], 1600×g, or 17,300×g for analysis of tyrosinase activity in the extracellular exported melanosomal particulate fraction, and in the resultant supernatant media fraction. In some cases (Table 11), tyrosinase was also measured by an in situ assay wherein radiolabelled tyrosine was added directly to freshly replaced media of NHEM for a period of 24 hrs following a 5 day treatment period (Abdel-Malek, et al., 1992, J. Cell. Physiol. 150:416-425). […] Both 5 mM 5-NBene-2,2-DM and 25 mM 3,3-M-1,2-BD induced more tyrosinase in each of these assays and fractions than did 1,2-PG. IBMX (3-isobutyl-1-methyl-xanthine) provided as a positive control, induced as much tyrosinase as 5 mM 5-NBene-2,2-DM in the in situ assay, but less in cellular, extracellular particulate and media fractions (Table 11).

[5] = system: tyrosinase activity in S91 mouse melanoma cells; assay: Induction of tyrosinase activity in S91 cells; conditions: for Tyrosinase dpm/hr 10^3 Cells / Tyrosinase dpm/hr ug Protein: 300 mM PG-1,2, 25 mM 3,3-M-1,2-BD, 50 mM 1,2-cs-CPD, 0.5 mM 2,3-Pyd, 0.1 mM IBMX, mean ±SE
[6] = No Penetration Enhancer, concentrations as E85
[7] = 5 day treatment, 300 mM 1,2-PG, 25 mM 3,3-M-1,2-BD, 5 mM 5-NBene-2,2-DM, 0.1 mM IBMX
[8] = 5 day treatment, concentrations as E130
[9] = Experiment 1, 5 mM 5-NBene-2,2-DM
[10] = Experiment 2, 5 mM 5-NBene-2,2-DM
[11] = Experiment 3, 5 mM 5-NBene-2,2-DM

## CC(O)CO (stereo not drawn) [1,2-propanediol, 1,2-Propanediol (Propylene Glycol)]
[1]
  Concentration Required for ≧2-fold Melanin Induction in S91 Cells: 150 mM
[1]; 50 mM
  pg Melanin/Cell: 15.6 pg Melanin/Cell
  ug Melanin: 1.31 µg
[1]; 150 mM
  pg Melanin/Cell: 24.0 pg Melanin/Cell
  ug Melanin: 1.73 µg
[1]; 1% (136 mM), 6 days
  pg Melanin/Cell: 9.4 pg Melanin/Cell
  ug Melanin: 4.88 µg
[1]; 2% (272 mM), 6 days
  pg Melanin/Cell: 12.5 pg Melanin/Cell
  ug Melanin: 6.24 µg
[1]; 3% (408 mM), 6 days
  pg Melanin/Cell: 20.2 pg Melanin/Cell
  ug Melanin: 4.03 µg
[1]; 4% (544 mM), 6 days
  pg Melanin/Cell: 40.1 pg Melanin/Cell
  ug Melanin: 4.01 µg
[1]; 5% (680 mM), 6 days
  pg Melanin/Cell: 28.9 pg Melanin/Cell
  ug Melanin: 2.31 µg
[2]
  Concentration Required for ≧1.5-fold Melanin Induction in NHEMs: 150 mM
[3]; [6]
  Pigmentation Rating Normalized to 1,2-PG: 1.0 ± 0.1
  Pigmentation Rating Normalized to 1M: 0.015 ± 0.002
[3]; No Penetration Enhancer, corrected for Nair control, concentrations as E85
  Pigmentation Rating Background Corrected: 0.21 ± 0.03
[3]; No Penetration Enhancer, sites c and d, 13.61M 1,2-PG, 11.0M 2,3-M-2,3-BD, 11.3M 2-M-1,3-PG, 8.7M 1,2-cs-CPD, 4.0M 3,3-M-1,2-BD
  Pigmentation Rating: 0.29 ± 0.09
[3]; same relative body position
  melanogenesis in guinea pigs (in words): significant melanogenesis relative to depilitory treated controls
[3]; site a (head), PG 13.6M, 2,3-BD 10.95M, 1,2-cs-CPD 10.7M full strength, 3,3-M-1,2-BD 4M in ethanol
  relative melanogenesis rating (mean ±SE), scale 0-4: 1.04 ± 0.21
[3]; site b, full strength solutions, listed as PG
  relative melanogenesis rating (mean ±SE), scale 0-4: 0.50 ± 0.25 and 0.83 ± 0.17
[3]; site c, full strength, 3,3-M-1,2-BD 4M in ethanol
  relative melanogenesis rating (mean ±SE), scale 0-4: 0.25 ± 0.09^1
[3]; site d (tail), full strength solutions
  relative melanogenesis rating (mean ±SE), scale 0-4: 0.33 ± 0.16^1
[3]; sites towards tail, 13.61M 1,2-PG, 10.6M 1,2-PG/2% 2P, 11M 2,3-dimethyl-2,3-butanediol
  pigmentation response versus control (Nair or 2% 2P treated) spots: not significantly different from control
[4]; [7]
  Tyrosinase In Situ: 17.2 dpm/hr/10^3 Cells and 16.8 dpm/hr/10^3 Cells
[4]; 5 day treatment, concentrations as E130, listed as 1,2-PG
  Tyrosinase Cellular: 10875 dpm/hr/10^3 Cells and 10247 dpm/hr/10^3 Cells
[4]; Post 17300 X g, 5 day treatment, concentrations as E130, listed as 1,2-PG
  Tyrosinase Media: 2123 dpm/hr/10^3 Cells and 1864 dpm/hr/10^3 Cells
[4]; concentrations as E130
  Tyrosinase 200 g Partic, relative to controls (in parentheses): (1.98X)
  Tyrosinase 17300 g Partic, relative to controls (in parentheses): (1.50X)
  Tyrosinase Cellular, relative to controls (in parentheses): (1.03) X
  Tyrosinase In Situ, relative to controls (in parentheses): (1.07X)
  Tyrosinase Media, relative to controls (in parentheses): (1.28X)
[5]; 5 mM 5-NBene-2,2-DM
  Tyrosinase dpm/hr 10^3 Cells: 292 ± 104 dpm/hr/10^3 Cells
  Tyrosinase dpm/hr ug Protein: 1003 ± 370 dpm/hr/ug Protein

## OCC1(CO)CC2C=CC1C2 (stereo not drawn) [5-NBene-2,2-DM, 5-norbornene-2,2-dimethanol]
[1]
  Concentration Required for ≧2-fold Melanin Induction in S91 Cells: 5 mM
[2]; listed as 5-Norbornene-2,2-Dimethanol
  Concentration Required for ≧1.5-fold Melanin Induction in NHEMs: 5 mM
[2]; listed as 5-norbornene-2,2-dimethanol
  Concentration Required for ≧1.5-fold Melanin Induction in NHEMs: ≤ 5 mM
[3]; spot a (anterior), 8.7M 1,2-cis-CPD in 20% ETOH, 1M 5-NBene-2,2-DM in 8.5 M propylene glycol, 2% 2-pyrrolidone, 20% ETOH, 1M 2,3-cs/ex PD in 50% ETOH
  Pigmentation Ratings (X ± SE; n = 6; scale 0 to +4): 1.75 ± 0.43
[3]; spot b, formulations as E220
  Pigmentation Ratings (X ± SE; n = 6; scale 0 to +4): 1.25 ± 0.21
[3]; spot c, formulations as E220
  Pigmentation Ratings (X ± SE; n = 6; scale 0 to +4): 0.83 ± 0.15
[3]; spot d (posterior), formulations as E220
  Pigmentation Ratings (X ± SE; n = 6; scale 0 to +4): 0.29 ± 0.08
[4]; [7]
  Tyrosinase In Situ: 24.5 dpm/hr/10^3 Cells and 25.4 dpm/hr/10^3 Cells
[4]; [8]
  Tyrosinase 200 g Partic: 6447 dpm/hr/10^3 Cells and 6291 dpm/hr/10^3 Cells
  Tyrosinase Cellular: 13838 dpm/hr/10^3 Cells and 14716 dpm/hr/10^3 Cells
[4]; Black-Neonatal-NHEM, 1 mM
  Tyrosinase Cellular: 10679 dpm/hr/10^3 cells
  Tyrosinase Cellular relative to Control: 1.08 X
  Tyrosinase In Situ: 13.9 dpm/hr/10^3 cells
  Tyrosinase In Situ relative to Control: 1.11 X
  Tyrosinase Media relative to Control: 2.41 X
[4]; Black-Neonatal-NHEM, 1 mM, media from 1 day treatment period
  Tyrosinase Media: 26.8 dpm/hr/10^3 cells
[4]; Black-Neonatal-NHEM, 5 mM
  Tyrosinase Cellular: 15398 dpm/hr/10^3 cells
  Tyrosinase Cellular relative to Control: 1.56 X
  Tyrosinase In Situ: 14.1 dpm/hr/10^3 cells
  Tyrosinase In Situ relative to Control: 1.13 X
  Tyrosinase Media relative to Control: 2.99 X
[4]; Black-Neonatal-NHEM, 5 mM, media from 1 day treatment period
  Tyrosinase Media: 33.2 dpm/hr/10^3 cells
[4]; Post 200 X g, 5 day treatment, concentrations as E130
  Tyrosinase 17300 g Partic: 493 dpm/hr/10^3 Cells and 473 dpm/hr/10^3 Cells
[4]; Post 17300 X g, 5 day treatment, concentrations as E130
  Tyrosinase Media: 4164 dpm/hr/10^3 Cells and 4639 dpm/hr/10^3 Cells
[4]; White-Adult-NHEM, 1 mM
  Tyrosinase Cellular: 12740 dpm/hr/10^3 cells
  Tyrosinase Cellular relative to Control: 0.91 X
  Tyrosinase In Situ: 6.27 dpm/hr/10^3 cells
  Tyrosinase In Situ relative to Control: 1.13 X
  Tyrosinase Media relative to Control: 0.82 X
[4]; White-Adult-NHEM, 1 mM, media from 1 day treatment period
  Tyrosinase Media: 29.9 dpm/hr/10^3 cells
[4]; White-Adult-NHEM, 5 mM
  Tyrosinase Cellular: 18467 dpm/hr/10^3 cells
  Tyrosinase Cellular relative to Control: 1.32 X
  Tyrosinase In Situ: 5.81 dpm/hr/10^3 cells
  Tyrosinase In Situ relative to Control: 1.04 X
  Tyrosinase Media relative to Control: 1.46 X
[4]; White-Adult-NHEM, 5 mM, media from 1 day treatment period
  Tyrosinase Media: 53.1 dpm/hr/10^3 cells
[4]; concentrations as E130
  Tyrosinase 200 g Partic, relative to controls (in parentheses): (18.6X)
  Tyrosinase 17300 g Partic, relative to controls (in parentheses): (4.22X)
  Tyrosinase Cellular, relative to controls (in parentheses): (1.40X)
  Tyrosinase In Situ, relative to controls (in parentheses): (1.57X)
  Tyrosinase Media, relative to controls (in parentheses): (2.83X)
[5]; 0.5 mM (Table 16)
  Fold Induction of Tyrosinase Relative to Controls: 2.8X
[5]; 1 mM (Table 15)
  Fold Induction of Tyrosinase Relative to Controls: 4.0X
[5]; 1 mM (Table 16)
  Fold Induction of Tyrosinase Relative to Controls: 3.6X
[5]; 2 mM (Table 15)
  Fold Induction of Tyrosinase Relative to Controls: 12.9X
[5]; 2.5 mM (Table 16)
  Fold Induction of Tyrosinase Relative to Controls: 14.5X
[5]; 5 mM 5-NBene-2,2-DM
  Tyrosinase Relative to Control: 8.2X
  Tyrosinase dpm/hr/ug Protein: 3273 dpm/hr/ug Protein
  Tyrosinase dpm/hr 10^3 Cells: 707 ± 54 dpm/hr/10^3 Cells
  Tyrosinase dpm/hr ug Protein: 1643 ± 105 dpm/hr/ug Protein
[5]; 5 mM 5-NBene-2,2-DM, average of two
  Tyrosinase dpm/hr/10^3 Cells, Avg.: 4381 dpm/hr/10^3 Cells
[5]; 5 mM 5-NBene-2,2-DM, single replicates
  Tyrosinase dpm/hr/10^3 Cells: 4515 dpm/hr/10^3 Cells and 4247 dpm/hr/10^3 Cells
[5]; 5 mM (Table 15)
  Fold Induction of Tyrosinase Relative to Controls: 41.9X
[5]; 5 mM (Table 16)
  Fold Induction of Tyrosinase Relative to Controls: 61.6X
[5]; [9]
  % of 5-NBene-2,2-DM: 100%
  Tyrosinase induction dpm/hr/10^3 cells: 5018 ± 415^1 dpm/hr/10^3 cells
[5]; [10]
  % of 5-NBene-2,2-DM: 100%
  Tyrosinase induction dpm/hr/10^3 cells: 5640 ± 323 dpm/hr/10^3 cells
[5]; [11]
  % of 5-NBene-2,2-DM: 100%
  Tyrosinase induction dpm/hr/10^3 cells: 6388 ± 460^1 dpm/hr/10^3 cells
